This passage reports IC50 and Ki results from EP1100482B1, “USE OF CALIX(N)ARENES IN THE MANUFACTURE OF A MEDICAMENT FOR TREATING FIBROTIC DISEASES” (CENTRE NATIONAL DE LA RECHERCHE SCIENTIFIQUE, priority 1998, dated 2000).

The target in assay [1] is T1, lysyl-oxydase d'aorte bovine (Bos taurus, UniProt P33072).
T1 construct: De l'aorte bovine foetale broyée est rincée par du tampon NaCI 0,12M; from tissue; host or cells: fetal bovine aorta
T1 sequence (P33072 170-418): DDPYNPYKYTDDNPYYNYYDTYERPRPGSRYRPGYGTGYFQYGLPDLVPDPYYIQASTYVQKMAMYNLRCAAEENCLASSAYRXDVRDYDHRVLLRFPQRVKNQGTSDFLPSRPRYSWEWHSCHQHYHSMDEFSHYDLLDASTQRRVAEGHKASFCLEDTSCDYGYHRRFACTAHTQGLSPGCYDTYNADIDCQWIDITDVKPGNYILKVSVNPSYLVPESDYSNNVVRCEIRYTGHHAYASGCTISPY
In words: Lysyl oxidase activity assay (tritium release from 3H elastin). The settings on record: partially purified lysyl oxidase from fetal bovine aorta; 3H élastine substrate; 37°C; pH 8,0; read-out: concentration nécessaire pour inhiber 50% de l'activité de lysyl-oxydase. In kind it is biochemical. Here is the method:
1. Purification partielle de la lysyl-oxydase d'aorte bovine
Ce protocole est inspiré de celui de (WILLIAMS et KAGAN, Anal. Biochem. 149, 430-437, 1985), et de (KAGAN et al. Biochem. J. 177, 203-214 (1979)), qui a été sensiblement modifié.
Toutes les étapes sont effectuées à 4 °C ou dans la glace.
De l'aorte bovine foetale broyée est rincée par du tampon NaCI 0,12M, NaPi 16 mM, pH 7,7 puis par du NaPi 16 mM, pH 7,7 (tampon PB). La lysyl oxydase est extraite du résidu par de l'urée 4 M (concentration finale dans le tampon PB). Le surnageant obtenu après centrifugation à 10.000 g pendant 30 minutes est dilué deux fois dans du PB puis incubé avec de la DEAE-cellulose pendant 3 heures. La résine est mise en colonne et rincée successivement par du tampon PB contenant de l'urée 2M , du tampon PB puis du tampon PB contenant du NaCI 0,4 M.
La lysyl oxydase est éluée à partir de la DEAE-cellulose par de l'urée 6M dans du tampon PB. Les fractions présentant une absorbance à 280 nm sont réunies et dialysées pendant une nuit contre du tampon PB en présence de gel de Bleu de Cibacron (Biorad). Le gel est ensuite mis en colonne, et après des rinçages successifs par du tampon PB, du tampon PB-NaCI 1M et à nouveau du tampon PB, la lysyl oxydase est éluée du gel de Bleu de Cibacron par de l'urée 6 M dans du tampon PB. […]

The target of assay [2] is T2, lysyl oxydase (Homo sapiens, UniProt P28300).
T2 sequence (P28300 169-417): T1 sequence (P33072 170-418) with T10S, S29G, P49A, A64S, S80T, X84A, S142N, N188G, S224T, E231D
Particulars: specific lysyl oxidase inhibitor described in the literature (Kagan, 1994); cited from earlier work.

As a reminder, the Ki is the equilibrium dissociation constant of an inhibitor or competing ligand from its target.

Residue numbers refer to the chain shown, from its start.

On to `O=S(=O)(O)c1cc2c(O)c(c1)Cc1cc(S(=O)(=O)O)cc(c1O)Cc1cc(S(=O)(=O)O)cc(c1O)Cc1cc(S(=O)(=O)O)cc(c1O)Cc1cc(S(=O)(=O)O)cc(c1O)Cc1cc(S(=O)(=O)O)cc(c1O)C2`, for which the IC50 in assay [1] amounted to 1200 µM.

For `N#CCCN` [βAPN, β amino-propionitrile], the Ki in assay [2] is 6 µM.
